# Reference: patent publication US6410591B1, “3,7 or 3 and 7 thia or oxa prostanoic acid derivatives as agents for lowering intraocular pressure” (Allergan Sales, Inc., priority 2001, dated 2002)
# Experiments:
# [1] = test system: intraocular pressure; assay: Intraocular pressure in dogs, applanation pneumatonometry; type: in vivo; conditions: for reduced the intraocular pressure (IOP) by: 25 μl to the ocular surface, IOP at 6 hours
# Experimental: The compounds were prepared at the said concentrations in a vehicle comprising 0.1% polysorbate 80 and 10 mM TRIS base. Dogs were treated by administering 25 μl to the ocular surface, the contralateral eye received vehicle as a control. Intraocular pressure was measured by applanation pneumatonometry. Dog intraocular pressure was measured immediately before drug administration and at 6 hours thereafter.
# [2] = test system: intraocular pressure; assay: Intraocular pressure in glaucomatous cynomolgus monkeys; type: in vivo, glaucomatous cynomonlgus monkey
Structure (SMILES),reduced the intraocular pressure (IOP) by ([1]; dose of 0.01% w/v),reduced the intraocular pressure (IOP) by ([1]; dose of 0.1% w/v),"ocular hypotensive effect ([1]; topical ocular, 25 μl)","effect on IOP ([2]; glaucomatous cynomonlgus monkey, dose of 0.01% w/v)",ocular hypotensive effect ([2]; glaucomatous cynomonlgus monkeys)
"CCCCC[C@H](O)/C=C/[C@H]1[C@H](O)CC(=O)[C@@H]1SCCCSCC(=O)O [Compound 9, {3-[(1R,2S,3R)-3-Hydroxy-2-((S)-(E)-3-hydroxyoct-1-enyl)-5-oxocyclopentyl-sulfanyl]propylsulfanyl}acetic acid]",45%,50%,pronounced ocular hypotensive effect,,
"CCCCC[C@H](O)/C=C/[C@H]1[C@H](O)CC(=O)[C@@H]1SCCCSCC(=O)OC(C)C [Compound 10, {3-[(1R,2S,3R)-3-Hydroxy-2-((S)-(E)-3-hydroxyoct-1-enyl)-5-oxocyclopentyl-sulfanyl]propylsulfanyl}acetic acid isopropyl ester]",,,,reduced the IOP,pronounced ocular hypotensive effect
